Marks after values point to notes of the source that are not given here.
Assays:
[1] = biological target: Human Aβ1-42 (Homo sapiens, UniProt P05067); assay: Aβ1-42 oligomerization (thioflavin T fluorescence); type: biochemical; settings: 50 μg/ml, 24 hours
Protocol: Dried Human Aβ1-42 was taken out from the refrigerator and equilibrated to room temperature. Aβ1-42 was dissolved in 1,1,1,3,3,3-Hexa-fluro-2-propanol (HFIP) to a concentration of 1 mM, and was then placed at room temperature for one hour. The Aβ1-42/HFIP solution was aliquoted by Hamilton syringe, and was then dried under a stream of nitrogen gas, followed by storing at a temperature of −20[…]. Aβ1-42 treated with HFIP was dissolved in PBS, and was vibration-incubated with treatment of each test sample at a concentration of 50 μg/ml and at 4[…] for 24 hours to prepare Aβ1-42 oligomers. The level of Aβ1-42 oligomerization was analyzed by thioflavin T fluorescence (Ex=450 nm, Em=482 nm).

[2] = system: extracellular Aβ1-40 accumulation in SH-SY5Y cells; assay: Effect on extracellular Aβ1-40 accumulation (Human Aβ1-40 immunoassay of the medium); type: cell-based; settings: 50 μg/ml, 24 hours, mean±SD
Protocol: (§1) Wild-type human neuroblastoma cells (SH-SY5Y) were cultured in Eagle's Minimum essential Medium (EMEM)/Ham's F12 medium (1:1 mixture) (containing 10% FBS, 10 units/ml penicillin, 10 μg/ml Streptomycin). Wild-type mouse neuroblastoma Neuro-2a cells were cultured in minimum essential medium (MEM) (containing 10% FBS, 10 units/ml penicillin, 10 μg/ml Streptomycin).
The medium of the wild-type human neuroblastoma SH-SY5Y cells in Example 1 were switched into chemical defined medium (EMEM/F12 medium (Cat. No. 12500-062), Hepes 5 mM, Glucose 0.6%, NaHCO3 3 mM, Glutamine 2.5 mM, Insulin 25 μg/ml, Transferin 100 μg/ml, Progestrone 20 nM, Putrescine 60 μM, Sodium selenite 30 nM, Heparin 2 μg/ml). Each well contained 1×10^5 SH-SY5Y cells in 300 μl of culture medium. Thirty minutes later, each well was treated with the test samples A-D given in Table 1 respectively at a concentration of 50 μg/ml for 24 hours. After that, the level of Aβ1-40 in the medium of each well was analyzed by Human Aβ1-40 immunoassay kits (Catalog #KHB3482 Invitrogen).
Human neuroblastoma SH-SY5Y cells cause extracellular accumulation of Aβ. […] The results were shown in mean±standard deviation (SD) form. Significant difference between the Vehicle control group and the test sample-treated groups were indicated by *., P<0.05, *.*, P<0.01, and. ***., P<0.001.

[3] = system: Aβ-degrading enzymes released by Neuro-2a cells; assay: Effect on extracellular Aβ1-40 degradation in Neuro-2a conditioned medium; type: biochemical, mouse; settings: Neuro-2a medium, 50 μg/ml, 10 ng synthetic Aβ1-40, 24 hours
Protocol: as §1
Mouse neuroblastoma Neuro-2a cells will release Aβ-degrading enzymes in the chemical defined medium, but will not produce detectable amount of Aβ in the medium. The Neuro 2a cells were incubated in the medium for 24 hours, and then the medium were drawn out without cells. The medium were individually treated with the test samples A-D at a concentration of 50 μg/ml and 10 ng synthetic Aβ1-40 for 24 hours, and then the effects of each test sample on promoting the enzymes in the medium were examined. The remaining Aβ1-40 amount of each well was analyzed by Human Aβ1-40 Immunoassay kits (Catalog #KHB3482 Invitrogen), expressing as percentage, as compared with the Vehicle control group.

[4] = system: Aβ1-42 plaques in rat brain; assay: Immunohistochemical staining for Aβ1-42 in the hippocampus section of rat's brain; type: in vivo; settings: oral
From the text: In the following Examples 7 to 11 illustrated below, male Sprague-Dawley (SD) rats, weighed 250-300 gm, were obtained from BioLASCO Taiwan Co. Ltd. The SD rats were infused intracerebroventricularly with Aβ1-42 to cause neuronal damage, affecting their memory and learning ability, and leading to form senile plaque-like aggregates in the rat's brain, being used as an animal model of Alzheimer's disease. Alzheimer's disease animal model induced by Aβ can be referred to, for example, Nabeshima et al. (Neuroscience Letters (1994) 170: 63-66)(British Journal of Pharmacology (1999) 126: 235-244).
(§2) The rats were anesthetized for implantation of an infusion cannula into the left cerebral ventricle thereof. After sewing up the incisions, the rats were returned to their cages. FIG. 7 illustrates the experimental schedule for animal studies. The exploration behavior tests were carried out on day 7, the passive avoidance learning tests were carried out on day 8 and 9, the water maze tests were carried on day 10 to 13, and the probe tests were carried out on day 14, after the start of Aβ1-42 infusion. The Sham group was treated with TFA solution (64.9% sterile ddH2O, 35% acetonitrile, 0.1% trifluoroacetic acid), and the other experimental groups were treated with 0.5 μl of Aβ1-42 dissolved in TFA solution per hour, corresponding to 300 pmol/12 μl of Aβ1-42 (Tocris 1428; MW: 4514.08) per day. The test samples were administered orally to the rats, 1 hour before the tests (i.e., the exploration behavior tests, the passive avoidance learning tests, and the water maze tests) throughout the experimental period. […] All the test samples were prepared freshly with deionized distilled water (ddH2O) every day, and were administered orally by stomach tube.
All rats were sacrificed and their brains were removed, cut into slices and stained. Neurotransmitters were also tested.
After the water maze performance tests, all rats were decapitated and their brains were rapidly removed from the skull, and then immunohistochemical staining for Aβ1-42 in the hippocampus section of their brains. […]

[5] = system: SD rats infused intracerebroventricularly with Aβ1-42; assay: Acetylcholine and choline levels in brain cortex and hippocampus of rats; type: in vivo, rat; settings: oral
Protocol: as §2, with “The Sham group was treated with TFA solution (64.9% sterile ddH2O, 35% acetonitrile, 0.1% trifluoroacetic acid), and the other experimental groups were treated with 0.5 μl of Aβ1-42 dissolved in TFA solution per hour, corresponding to 300 pmol/12 μl of Aβ1-42 (Tocris 1428; MW: 4514.08) per day.” left out
(§3) Significant difference between the Aβ1-42 control group and the other experimental groups were indicated by *., P<0.05, *.*, P<0.01, and. ***., P<0.001.
(§4) After the water maze performance tests, all rats were decapitated and their brains were rapidly removed from the skull. […]

[6] = system: SD rats infused intracerebroventricularly with Aβ1-42; assay: Exploration behavior test in Aβ1-42-infused rats; type: in vivo, rat; settings: oral
Protocol: as §2, with “The Sham group was treated with TFA solution (64.9% sterile ddH2O, 35% acetonitrile, 0.1% trifluoroacetic acid), and the other experimental groups were treated with 0.5 μl of Aβ1-42 dissolved in TFA solution per hour, corresponding to 300 pmol/12 μl of Aβ1-42 (Tocris 1428; MW: 4514.08) per day.” left out
as §3

[7] = system: SD rats infused intracerebroventricularly with Aβ1-42; assay: Water maze spatial performance and probe tests in Aβ1-42-infused rats; type: in vivo, rat; settings: oral
Protocol: as §2, with “The Sham group was treated with TFA solution (64.9% sterile ddH2O, 35% acetonitrile, 0.1% trifluoroacetic acid), and the other experimental groups were treated with 0.5 μl of Aβ1-42 dissolved in TFA solution per hour, corresponding to 300 pmol/12 μl of Aβ1-42 (Tocris 1428; MW: 4514.08) per day.” left out
as §3

[8] = system: SD rats infused intracerebroventricularly with Aβ1-42; assay: Passive avoidance response test in Aβ1-42-infused rats; type: in vivo, rat; settings: oral
Protocol: as §2, with “The Sham group was treated with TFA solution (64.9% sterile ddH2O, 35% acetonitrile, 0.1% trifluoroacetic acid), and the other experimental groups were treated with 0.5 μl of Aβ1-42 dissolved in TFA solution per hour, corresponding to 300 pmol/12 μl of Aβ1-42 (Tocris 1428; MW: 4514.08) per day.” left out
as §3

[9] = system: acetylcholinesterase; assay: Acetylcholinesterase activities in brain cortex and hippocampus of rats; type: in vivo, rat; settings: oral; D 2.5 and 5 mg/kg, Aricept 0.75 mg/kg
Protocol: as §2, with “The Sham group was treated with TFA solution (64.9% sterile ddH2O, 35% acetonitrile, 0.1% trifluoroacetic acid), and the other experimental groups were treated with 0.5 μl of Aβ1-42 dissolved in TFA solution per hour, corresponding to 300 pmol/12 μl of Aβ1-42 (Tocris 1428; MW: 4514.08) per day.” left out
as §3, §4

[10] = system: SD rats infused intracerebroventricularly with Aβ1-42; assay: Dopamine (DA) and metabolites DOPAC and HVA levels in brain cortex and hippocampus of rats; type: in vivo, rat; settings: for DA level / DOPAC level / HVA level: mean±SD
Protocol: as §2, with “The Sham group was treated with TFA solution (64.9% sterile ddH2O, 35% acetonitrile, 0.1% trifluoroacetic acid), and the other experimental groups were treated with 0.5 μl of Aβ1-42 dissolved in TFA solution per hour, corresponding to 300 pmol/12 μl of Aβ1-42 (Tocris 1428; MW: 4514.08) per day.” left out
as §3
After the water maze performance tests, all rats were decapitated and their brains were rapidly removed from the skull. According to Glowinski and Iversen, the brain cortex and hippocampus were separated, and then each cortex and hippocampus were weighed and were homogenized by addition of 50 mM Na-phosphate buffer (pH 7.8) for analyzing the concentrations of neurotransmitters and the levels of enzymes.

[11] = D 2.5 and 5 mg/kg, Aricept 0.75 mg/kg
[12] = brain hippocampus, oral 2.5 mg/kg
[13] = brain hippocampus, oral 5 mg/kg

Sequence of Human Aβ1-42 (P05067 672-713 limits assumed): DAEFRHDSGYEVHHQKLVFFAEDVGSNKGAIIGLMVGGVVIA

Compound: C[C@@H]1O[C@@H](O[C@@H]2[C@@H](O)[C@H](OCCc3ccc(O)c(O)c3)O[C@H](CO[C@@H]3O[C@H](CO)[C@@H](O)[C@H](O)[C@H]3O)[C@H]2OC(=O)/C=C/c2ccc(O)c(O)c2)[C@H](O)[C@H](O)[C@H]1O [Test sample B, Echinacoside, reference compound]
- activity on inhibiting Aβ1-42 oligomerization (in words) [1]: possess activities on inhibiting Aβ1-42 oligomerization

Compound: C[C@@H]1O[C@@H](O[C@@H]2[C@@H](O)[C@H](OCCc3ccc(O)c(O)c3)O[C@H](CO)[C@H]2OC(=O)/C=C/c2ccc(O)c(O)c2)[C@H](O)[C@H](O)[C@H]1O [Test sample C, Acteoside, reference compound]
- reduction of the level of Aβ1-40 in the medium in comparison with the Vehicle control group [2]: about 20%
- activity on inhibiting Aβ1-42 oligomerization (in words) [1]: possess activities on inhibiting Aβ1-42 oligomerization

Compound: Isoacteoside [Test sample D]
- Aβ1-40 degradation (remaining Aβ1-40 amount) [3]: does not accelerate Aβ degradation
- plaques found in the brain of the rat ([4]; 2.5 mg/kg): few plaques
- plaques found in the brain of the rat ([4]; 5 mg/kg): almost no plaques
- plaques in the brain, compared with Aricept-treated rat ([4]; D 2.5 and 5 mg/kg vs Aricept 0.75 mg/kg): less than that in the brain of the rat treated with Aricept
- acetylcholine levels in the brain cortex and hippocampus ([5]; 5 mg/kg): particularly potent
- acetylcholine levels in the brain cortex and hippocampus [5, 11]: reverse the decrease in acetylcholine levels
- exploratory activities, compared with Aricept 0.75 mg/kg ([6]; 5 mg/kg): shows better effects than Aricept 0.75 mg/kg
- exploratory activities of the rats ([6]; D 2.5 and 5 mg/kg, Aricept 0.75 mg/kg, day 7): effective in improving the exploratory activities of the rats
- water maze spatial performance and probe test, compared with Aricept 0.75 mg/kg ([7]; 5 mg/kg): shows better effects than Aricept 0.75 mg/kg
- deficits of the water maze spatial performance and the probe test [7, 11]: can be improved
- reduction of the level of Aβ1-40 in the medium in comparison with the Vehicle control group [2]: about 47.44±16.62%
- passive avoidance response, compared with Aricept 0.75 mg/kg ([8]; 2.5 mg/kg): shows equivalent effect with Aricept 0.75 mg/kg
- passive avoidance response, compared with Aricept 0.75 mg/kg ([8]; 5 mg/kg): shows better effects than Aricept 0.75 mg/kg
- passive avoidance learning impairment (step-through latency) [8, 11]: reverse the passive avoidance learning impairment
- activity on inhibiting Aβ1-42 oligomerization (in words) [1]: possess activities on inhibiting Aβ1-42 oligomerization
- inhibition of Aβ1-42 oligomerization [1]: 98.93±1.70%
- acetylcholinesterase activities in the brain cortex and hippocampus [9]: reverse the increase in acetylcholinesterase activities
- DA level ([10]; brain cortex, oral 2.5 mg/kg): 2.67 ± 0.43
- DOPAC level ([10]; brain cortex, oral 2.5 mg/kg): 12.53 ± 3.33
- HVA level ([10]; brain cortex, oral 2.5 mg/kg): 2.92 ± 0.58
- DA level ([10]; brain cortex, oral 5 mg/kg): 3.84 ± 0.47*
- DOPAC level ([10]; brain cortex, oral 5 mg/kg): 13.80 ± 3.03
- HVA level ([10]; brain cortex, oral 5 mg/kg): 2.74 ± 0.69
- DA level [10, 12]: 5.41 ± 1.30***
- DOPAC level [10, 12]: 4.98 ± 1.15
- HVA level [10, 12]: 3.68 ± 0.46
- DA level [10, 13]: 4.07 ± 0.59***
- DOPAC level [10, 13]: 4.13 ± 0.45
- HVA level [10, 13]: 3.29 ± 0.25
- DA levels in the cortex and hippocampus (in words) ([10]; oral, D 2.5 and 5 mg/kg, Aricept 0.75 mg/kg): reverse the decrease in DA levels

— patent US20120009131A1, “METHOD FOR PREVENTING OR TREATING AMYLOID BETA PEPTIDE-ASSOCIATED DISEASES OR CONDITIONS, AND METHOD FOR INHIBITING FORMATION, ACCUMULATION OR AGGREGATION OF AMYLOID BETA PEPTIDES” (Sinphar Tian-Li Pharmaceutical Co., Ltd. (Hangzhou), priority 2010, published 2012)
